Values quoted from earlier work, collected in patent US7968511B2, “Combination therapy with glatiramer acetate and mitoxantrone for the treatment of multiple sclerosis” (Teva Pharmaceutical Industries, Ltd., priority 2003, dated 2011).

Test system: multiple sclerosis (MS)
Settings: daily subcutaneous injections, 20 mg/injection

L-glutamic acid polymer with L-alanine, L-lysine and L-tyrosine, acetate (salt) [glatiramer acetate]
reduce: appearance of "black holes" | appearance of new lesions by magnetic resonance imaging (MRI) | progression of disability | relapse rates
